# Assay results as given in patent US20250041306A1, “TARGETED PROTEASE DEGRADATION (TED) PLATFORM” (EUBULUS BIOTHERAPEUTICS INC., priority 2021, published 2025).
# Read-outs that look alike come from different tables or passages of the source.
# Assays:
# Format in all cases: cell-based
# [1] = tested on: Human Small Cell Lung Cancer NCI-H82; experiment: Cell proliferation experiment (Alarm blue), H82
# Experimental: (§1) The cells were cultured in conventional ways, and the cells should be passed for at least 2 generations before plating. Cells at the logarithmic growth phase were collected, prepared into single cell suspensions and counted. The concentration of cells was adjusted to desired concentration, and cells were inoculated into a 96-well cell culture plate at 100 μl per well. 100 μL of complete medium of the test compound were added to each well, 2 replicate wells for each concentration were set up, and diluted with a 5-fold gradient, and continued to culture for 72 h. All cells were subjected to EC50 test for corresponding samples.
# (§2) The fluorescence intensity of each well was detected using the Alarm blue method, and IC50 was calculated.
# (§3) IC50 was calculated according to the following formula:
# (§4) [formula] • wherein Min, Max and Slope represent the minimum, maximum and slope respectively.
# [2] = tested on: Human Colon Cancer cells Colo205; experiment: Cell proliferation experiment (Alarm blue), Colo205
# Experimental: as §1, §2, §3, §4
# [3] = tested on: Human Small Cell Lung Cancer H69; experiment: Cell proliferation experiment (Alarm blue), H69
# Experimental: as §1, §2, §3, §4
# Human Colon Cancer HT-29 = experiment: Cell proliferation experiment (Alarm blue), HT-29
# Experimental: as §1, §2, §3, §4
# [4] = tested on: human gastric carcinoma cells N87; experiment: Cell proliferation experiment (Alarm blue), N87
# Experimental: as §1, §2, §3, §4
# [5] = Homo sapiens, NCI-H82, 72 h, H82 cells, 72 h culture, read-out: Anti cell proliferative activity EC50, H82
# [6] = Homo sapiens, COLO 205, 72 h, Colo205 cells, 72 h culture, read-out: Anti cell proliferative activity EC50, Colo205
# [7] = Homo sapiens, NCI-H69, H69 cells, 72 h culture, read-out: Anti cell proliferative activity EC50, H69
# [8] = Homo sapiens, HT-29 cells, 72 h culture, read-out: Anti cell proliferative activity EC50, HT-29
# [9] = Homo sapiens, 72 h, N87 cells, 72 h culture, read-out: Anti cell proliferative activity EC50, N87
# [10] = H82 cells, 72 h culture, read-out: Anti cell proliferative activity EC50, H82
# [11] = Colo205 cells, 72 h culture, read-out: Anti cell proliferative activity EC50, Colo205
# [12] = H69 cells, 72 h culture, read-out: Anti cell proliferative activity EC50, H69
# [13] = HT-29 cells, 72 h culture, read-out: Anti cell proliferative activity EC50, HT-29
# [14] = N87 cells, 72 h culture, read-out: Anti cell proliferative activity EC50, N87
# [15] = Homo sapiens, NCI-H82, H82 cells, 72 h culture, read-out: Anti cell proliferative activity EC50, H82
# [16] = Homo sapiens, COLO 205, Colo205 cells, 72 h culture, read-out: Anti cell proliferative activity EC50, Colo205
# [17] = Homo sapiens, N87 cells, 72 h culture, read-out: Anti cell proliferative activity EC50, N87
smiles,measurement,setting,value
CNC(=O)c1ccccc1Nc1nc(Nc2ccc(N3CCN(C(=O)NC4CCN(CCNCCC#Cc5ccc6c(c5)CN(C5CCC(=O)NC5=O)C6=O)CC4)CC3)cc2)ncc1Cl (stereo not drawn) [UB-181240],EC50,[1]; [5],0.037 µM
same,EC50,[2]; [6],0.0401 µM
same,EC50,[3]; [7],> 1 µM
same,EC50,Human Colon Cancer HT-29; [8],0.181 µM
same,EC50,[4]; [9],0.092 µM
CC[C@@H]1C(=O)N(C)c2cnc(Nc3ccc(-c4cn([C@H]5CC[C@@H](N(CCOCCC#Cc6cccc7c6CN(C6CCC(=O)NC6=O)C7=O)C(=O)OCc6ccc(NC(=O)[C@H](CC(N)=O)NC(=O)[C@H](C)NC(=O)[C@H](C)NC(=O)CCCCCN7C(=O)CC(SC[C@H](NC(=O)[C@H](CC(=O)O)NC(=O)[C@H](CC(=O)O)NC(=O)[C@H](CCCNC(=N)N)NC(=O)[C@H](CC(=O)O)NC(=O)CCC(NC(=O)c8ccc(NCc9cnc%10nc(N)[nH]c(=O)c%10n9)cc8)C(=O)O)C(=O)O)C7=O)cc6)CC5)nn4)cc3OC)nc2N1C1CCCC1 (stereo partly drawn) [UB-181337],EC50,[1]; 72 h,0.183 µM
same,EC50,[2]; 72 h,0.0331 µM
same,EC50,[3]; 72 h,0.0793 µM
same,EC50,Human Colon Cancer HT-29; 72 h,0.233 µM
same,EC50,[4]; 72 h,0.175 µM
C[C@H](NC(=O)[C@H](C)NC(=O)[C@H](CS(=O)(=O)O)NC(=O)CCN1C(=O)CC(SC[C@H](N)C(=O)N[C@H](Cc2ccccc2)C(=O)N[C@H]2CSSC[C@@H](C(=O)N[C@H](CO)[C@@H](C)O)NC(=O)[C@H]([C@@H](C)O)NC(=O)[C@H](CCCCN)NC(=O)[C@@H](Cc3c[nH]c4ccccc34)NC(=O)[C@H](Cc3ccccc3)CC2=O)C1=O)C(=O)N[C@@H](CC(N)=O)C(=O)Nc1ccc(COC(=O)N(CCC#Cc2ccc3c(c2)CN(C2CCC(=O)NC2=O)C3=O)C2CCC(NC(=O)N3CCN(c4ccc(Nc5ncc(Cl)c(Nc6ccccc6C(N)=O)n5)cc4)CC3)CC2)cc1 (stereo partly drawn) [UB-181345],EC50,[1]; [10],0.0929 µM
same,EC50,[2]; [11],0.274 µM
same,EC50,[3]; [12],> 1 µM
same,EC50,Human Colon Cancer HT-29; [13],> 1 µM
same,EC50,[4]; [14],0.3 µM
CC(OC(=O)N(CCC#Cc1ccc2c(c1)CN(C1CCC(=O)NC1=O)C2=O)C1CCC(NC(=O)N2CCN(c3ccc(Nc4ncc(Cl)c(Nc5ccccc5C(N)=O)n4)cc3)CC2)CC1)C(C)SSC[C@H](NC(=O)CCOCCOCCOCCOCCOCCOCCOCCOCCNC(=O)CC[C@H](NC(=O)c1ccc(NCc2cnc3nc(N)[nH]c(=O)c3n2)cc1)C(=O)O)C(=O)N[C@H](Cc1ccccc1)C(=O)N[C@H]1CSSC[C@@H](C(=O)N[C@H](CO)[C@@H](C)O)NC(=O)[C@H]([C@@H](C)O)NC(=O)[C@H](CCCCN)CC(=O)[C@@H](Cc2c[nH]c3ccccc23)NC(=O)[C@H](Cc2ccccc2)NC1=O (stereo partly drawn) [UB-181280],EC50,[1]; [10],0.647 µM
same,EC50,[2]; [11],0.0019 µM
same,EC50,[3]; [12],> 1 µM
same,EC50,Human Colon Cancer HT-29; [13],> 1 µM
same,EC50,[4]; [14],> 1 µM
NC(=O)c1ccccc1Nc1nc(Nc2ccc(N3CCN([C@H]4CC[C@@H](NCCC#Cc5ccc6c(c5)CN(C5CCC(=O)NC5=O)C6=O)CC4)CC3)cc2)ncc1Cl (stereo partly drawn) [UB-181315],EC50,[1]; [15],0.314 µM
same,EC50,[2]; [16],0.723 µM
same,EC50,[3]; [7],> 1 µM
same,EC50,Human Colon Cancer HT-29; [8],> 1 µM
same,EC50,[4]; [17],> 1 µM
NC(=O)c1ccccc1Nc1nc(Nc2ccc(N3CCN(C(=O)N[C@H]4C[C@@H](NCC#Cc5ccc6c(c5)CN(C5CCC(=O)NC5=O)C6=O)C4)CC3)cc2)ncc1Cl (stereo partly drawn) [UB-181258],EC50,[1]; [5],0.0238 µM
same,EC50,[2]; [6],0.0377 µM
same,EC50,[3]; [7],0.0313 µM
same,EC50,Human Colon Cancer HT-29; [8],0.401 µM
same,EC50,[4]; [9],0.0246 µM
CNC(=O)c1ccccc1Nc1nc(Nc2ccc(N3CCN(C(=O)N[C@H]4CC[C@@H](N(CCC#Cc5ccc6c(c5)CN(C5CCC(=O)NC5=O)C6=O)C(=O)OCCSSC[C@H](N)C(=O)N[C@H](Cc5ccccc5)C(=O)N[C@H]5CSSC[C@@H](C(=O)N[C@H](CO)[C@@H](C)O)NC(=O)[C@H]([C@@H](C)O)NC(=O)[C@H](CCCCN)NC(=O)[C@@H](Cc6c[nH]c7ccccc67)NC(=O)[C@H](Cc6ccccc6)NC5=O)CC4)CC3)cc2)ncc1Cl (stereo partly drawn) [UB-181299],EC50,[1]; [10],0.245 µM
same,EC50,[2]; [11],0.302 µM
same,EC50,[3]; [12],> 1 µM
same,EC50,Human Colon Cancer HT-29; [13],> 1 µM
same,EC50,[4]; [14],0.679 µM
CC(OC(=O)N(CCC#Cc1ccc2c(c1)CN(C1CCC(=O)NC1=O)C2=O)C1CCC(NC(=O)N2CCN(c3ccc(Nc4ncc(Cl)c(Nc5ccccc5C(N)=O)n4)cc3)CC2)CC1)C(C)SSC[C@H](N)C(=O)N[C@H](Cc1ccccc1)C(=O)N[C@H]1CSSC[C@@H](C(=O)N[C@H](CO)[C@@H](C)O)NC(=O)[C@H]([C@@H](C)O)NC(=O)[C@H](CCCCN)NC(=O)[C@@H](Cc2c[nH]c3ccccc23)NC(=O)[C@H](Cc2ccccc2)NC1=O (stereo partly drawn) [UB-181275],EC50,[1]; [10],0.74 µM
same,EC50,[2]; [11],0.442 µM
same,EC50,[3]; [12],> 1 µM
same,EC50,Human Colon Cancer HT-29; [13],0.968 µM
same,EC50,[4]; [14],> 1 µM
CNC(=O)c1ccccc1Nc1nc(Nc2ccc(N3CCC(C(=O)N4CCC5(CC4)CC(NCCC#Cc4ccc6c(c4)CN(C4CCC(=O)NC4=O)C6=O)C5)CC3)cc2)ncc1Cl (stereo not drawn) [UB-181249],EC50,[1]; [5],0.386 µM
same,EC50,[2]; [6],0.052 µM
same,EC50,[3]; [7],> 1 µM
same,EC50,[4]; [9],0.0661 µM
NC(=O)c1ccccc1Nc1nc(Nc2ccc(N3CCN(C(=O)NC4CCN(C(=O)CNCCC#Cc5ccc6c(c5)CN(C5CCC(=O)NC5=O)C6=O)CC4)CC3)cc2)ncc1Cl (stereo not drawn) [UB-181239],EC50,[1]; [10],0.354 µM
same,EC50,[2]; [11],0.175 µM
same,EC50,[3]; [12],> 1 µM
same,EC50,[4]; [14],0.132 µM
C[C@H](NC(=O)CCCCCN1C(=O)C=CC1=O)C(=O)N[C@@H](C)C(=O)N[C@@H](CC(N)=O)C(=O)Nc1ccc(COC(=O)N(CCC#Cc2ccc3c(c2)CN(C2CCC(=O)NC2=O)C3=O)C2CCC(NC(=O)N3CCN(c4ccc(Nc5ncc(Cl)c(Nc6ccccc6C(N)=O)n5)cc4)CC3)CC2)cc1 (stereo partly drawn) [UB-181295],EC50,[1]; [15],0.106 µM
same,EC50,[2]; [16],0.136 µM
same,EC50,[3]; [7],0.953 µM
same,EC50,Human Colon Cancer HT-29; [8],0.484 µM
CC[C@H]1C(=O)N(C)c2cnc(Nc3ccc(-c4cn([C@H]5CC[C@@H](N(CCOCCC#Cc6cccc7c6CN(C6CCC(=O)NC6=O)C7=O)C(=O)OCc6ccc(NC(=O)[C@H](CCCNC(N)=O)NC(=O)[C@@H](NC(=O)CCOCCOCCOCCOCCOCCOCCOCCOCCNC(=O)CCN7C(=O)C=CC7=O)C(C)C)cc6)CC5)nn4)cc3OC)nc2N1C1CCCC1 (stereo partly drawn) [UB-181238],EC50,[1]; 72 h,> 1 µM
same,EC50,[4]; 72 h,> 1 µM
NC(=O)c1ccccc1Nc1nc(Nc2ccc(N3CCN(C(=O)N[C@H]4C[C@H](NCCC#Cc5ccc6c(c5)CN(C5CCC(=O)NC5=O)C6=O)C4)CC3)cc2)ncc1Cl (stereo partly drawn) [UB-181261],EC50,[1]; [5],0.0249 µM
same,EC50,[2]; [6],0.0248 µM
same,EC50,[3]; [7],0.0612 µM
same,EC50,[4]; [9],0.0236 µM
CNC(=O)c1ccccc1Nc1nc(Nc2ccc(N3CCN(C(=O)N[C@H]4C[C@@H](NCC#Cc5ccc6c(c5)CN(C5CCC(=O)NC5=O)C6=O)C4)CC3)cc2)ncc1Cl (stereo partly drawn) [UB-181257],EC50,[1]; [5],0.0423 µM
same,EC50,[2]; [6],0.0594 µM
same,EC50,[3]; [7],> 1 µM
same,EC50,[4]; [9],0.0718 µM
NC(=O)c1ccccc1Nc1nc(Nc2ccc(N3CCN(C(=O)NC4CCN(C(=O)CNCCC#Cc5ccc6c(c5)CN(C5CCC(=O)NC5=O)C6=O)CC4)CC3)cc2)ncc1Cl (stereo not drawn) [UB-181236],EC50,[1]; [5],0.603 µM
same,EC50,[2]; [6],0.146 µM
same,EC50,[3]; [7],> 1 µM
same,EC50,[4]; [9],0.0925 µM
CNC(=O)c1ccccc1Nc1nc(Nc2ccc(N3CCN(C(=O)NC4CCN(C(=O)CNCCC#Cc5ccc6c(c5)CN(C5CCC(=O)NC5=O)C6=O)CC4)CC3)cc2)ncc1Cl (stereo not drawn) [UB-181235],EC50,[1]; [15],0.253 µM
same,EC50,[2]; [16],0.144 µM
same,EC50,[3]; [7],> 1 µM
same,EC50,[4]; [17],0.813 µM
NC(=O)c1ccccc1Nc1nc(Nc2ccc(N3CCN(C(=O)N[C@H]4CC[C@@H](NC5CN(CCC#Cc6ccc7c(c6)CN(C6CCC(=O)NC6=O)C7=O)C5)CC4)CC3)cc2)ncc1Cl (stereo partly drawn) [UB-181251],EC50,[1]; [5],0.0324 µM
same,EC50,[2]; [6],0.133 µM
same,EC50,[3]; [7],> 1 µM
same,EC50,[4]; [9],0.0719 µM
CNC(=O)c1ccccc1Nc1nc(Nc2ccc(N3CCN(C(=O)N[C@H]4C[C@@H](NCCC#Cc5ccc6c(c5)CN(C5CCC(=O)NC5=O)C6=O)C4)CC3)cc2)ncc1Cl (stereo partly drawn) [UB-181250],EC50,[1]; [5],0.0537 µM
same,EC50,[2]; [6],0.0482 µM
same,EC50,[3]; [7],> 1 µM
same,EC50,[4]; [9],0.0205 µM
